Test system: arachidonic acid-induced ear swelling
Assay: topical arachidonic acid-induced ear swelling model in mice
Format: in vivo
Settings: for % Inhibition of ear swelling: measured at 90 minutes, male ICR mice; for inhibition in the ear swelling induced by arachidonic acid relative to vehicle-treated group (in words): statistically significant, p<0.05
Description: The active compounds (methanesulfonylalkylnitriles, n=1-6), indomethacin (positive control), and vehicle were evaluated for anti-inflammatory activity in a topical arachidonic acid-induced ear swelling model in mice.
Methanesulfonylacetonitrile (n=1) was purchased from Aldrich. Methanesulfonylalkylnitriles, n=2-5 were prepared by a method modified from Hsi et al. (Scientia Sinica 1974, 17, 743-751) with 30% hydrogen peroxide as the oxidizing agent. 7-methanesulfonylheptanenitrile (n=6) was prepared according to Example 1. Each active compound and the positive control were dissolved in vehicle (ethanol/acetone 1:1).
Male ICR mice weighing 22±2 g were used and randomly divided; each group had 10 mice. Arachidonic Acid (0.5 mg in 20 μl of acetone:ethanol/1:1) was applied topically to the anterior and posterior surfaces of the right ear of each mice. Test substances and vehicle, as listed in Table 3 were similarly topically applied 30 min before and 15 min after arachidonic acid application. The thickness of the right ear and the left ear was measured and the difference calculated as an indication of the inflammation in the right ear. Ear swelling was measured by a Dyer model micrometer gauge at 60 and 90 minutes after arachidonic acid application as an index of inflammation. Percent inhibition was calculated according to the formula: Ic−It/Ic×100, where Ic and It refers to increase of ear thickness (mm) in control and treated mice, respectively. ANOVA and Dunnett's test were employed to ascertain significant difference between vehicle control and treated groups. Significance is set at P<0.05 level.

[1] = 375 mM in acetone:ethanol (1:1), 20 μL, 30 min before and 15 min after arachidonic acid

Row | Compound | % Inhibition of ear swelling [1] [%] | inhibition in the ear swelling induced by arachidonic acid relative to vehicle-treated group (in words) | % Inhibition of ear swelling (positive control, 14 mM (0.5% w/v), 0.1 mg/20 μL) [%]
1 | CS(=O)(=O)CCCCCC#N [6-methanesulfonylhexanenitrile] | 8 | – | –
2 | CS(=O)(=O)CCCC#N [4-methanesulfonylbutyronitrile] | 15 | – | –
3 | CS(=O)(=O)CCCCCCC#N [7-methanesulfonylheptanenitrile] | 46 | significant inhibition | –
4 | CS(=O)(=O)CCCCC#N [5-methanesulfonylpentanenitrile] | 24 | significant inhibition | –
5 | CS(=O)(=O)CCC#N [3-methanesulfonylpropionitrile] | 36 | significant inhibition | –
6 | COc1ccc2c(c1)c(CC(=O)O)c(C)n2C(=O)c1ccc(Cl)cc1 [Indomethacin, reference compound] | – | – | 53
7 | CS(=O)(=O)CC#N [Methanesulfonylacetonitrile, methanesulfonylacetonitrile] | 22 | significant inhibition | –

Reference: patent publication US20130324603A1, “PHARMACEUTICAL COMPOSITION FOR TREATING INFLAMMATION AND PAIN” (priority 2012, published 2013)
